In patent US11319311B2, “Crystalline forms of Actinomycin D for treatment of cancer” (TRANSGENEX NANOBIOTECH, INC., priority 2018, dated 2022):
pIC50: −log10 of the molar value. Like-named read-outs stand apart in the source and are kept apart here.

How the values were obtained:
[1] = Accelerated stability studies (PXRD physical form stability); assay type: physicochemical; conditions: accelerated conditions 75% humidity and 40° C., one year, by PXRD
Description: Stability studies of the DACT novel forms were conducted using accelerated conditions (75% humidity and 40° C.) of which are obvious to the artisan in the field, for more than one year. […] Selected data of the novel complexes of DACT:methylparaben, propylparaben and diphenic acid proves this point.

[2] = in vivo; cited from earlier work
SK-Mel-5 = assay: Monolayer cell culture IC50 (CellTiter-Glo viability), SK-Mel-5; assay type: cell-based; conditions: for IC50: Homo sapiens, SK-MEL-5, 72 h; for pIC50: Skin, SK-Mel-5, monolayer, 72 hours treatment, average of three replications
Description: (§1) Cancer cell lines listed in Table 1 were subjected for testing anti-cancer potency or the half maximal inhibitory concentration (IC50) of the D-Actinomycin (DACT) molecular complexes.
(§2) The SK-ES-1, U-2 OS, and SAOS-2 cells were cultured in a growth medium that is ATCC-formulated McCoy's 5a Medium Modified, Catalog No. 30-2007. The PC-3, PANC-1, SK-Mel-5, A549, H460, and H1299 were cultured in a growth medium that is ATCC-formulated Dulbecco's Modified Eagle's Medium (DMEM), Catalog No. 30-2002. The cells were seeded on 96-well microtiter plates with 3500 cells per well and cultured in an incubator (Model 3120, Thermo Scientific, USA) with a constant temperature at 37° C. and 5% carbon dioxide (CO2) gas for 24 hours.
(§3) The new DACT-molecular complexes were made into a series with concentration of 200 nM to 40 nM, 8 nM, 1.6 nM, 0.32 nM, and 0.064 nM. 100 μl of each solution was then added into each well to bring out the final concentration of the drug treatment at 100 nM, 20 nM, 4 nM, 0.8 nM, 0.16 nM, or 0.032 nM, respectively.
(§4) The treated cells in the 96 well plate was then further cultured at the same conditions for 72 hours and then subjected for a final cell viability measurement. The measurement used a homogeneous method to determine the number of metabolically active cells presented in each of treatments. A testing reagent for the measurement is a mixture solution of the CellTiter-Glo® 2.0 reagent (CTG, Promega Cat #G9243, USA) and growth medium in 1:1 ratio in this respect.
(§5) The 96-well plate with the new molecular complex treated cells was taken out from incubator after the 72 hours of incubation, and the treatment solution in each well was removed using a multichannel pipette, and 100 μl of the testing reagent were added into each well. The plate was then placed on a plate shaker for 15 min. The plate was covered with a piece of aluminum foil to protect the CTG luminescence during the shaking time.
(§6) Then 90 μl of the 100 μl testing reagent were transferred into an opaque-walled 96-well plate for the CTG luminescence reading on a plate reader (SynergyH4 Hybrid Reader, Biotek, USA). The luminescence intensity of each treatment was positively correlated with the number of cells survived during the treatments.
(§7) All the treatment data was normalized by comparing with the control samples that had only growth medium without any molecular complexes. The half maximal inhibitory concentration (IC50) data was calculated using the nonlinear regression model and dose-responses (inhibition) curve built in the software. Each of treatments was performed in three replications each time and repeated three times for validation. The IC50 average […] (Avg) and standard deviation (STDV) were calculated based on the three replications.

H1299 = assay: Monolayer cell culture IC50 (CellTiter-Glo viability), H1299; assay type: cell-based; conditions: Homo sapiens, NCI-H1299, Lung, 72 hours treatment, average of three replications
Description: as §1, §2, §3, §4, §5, §6, §7

U-2 OS = assay: Monolayer cell culture IC50 (CellTiter-Glo viability), U-2 OS; assay type: cell-based; conditions: for IC50: Homo sapiens, U2OS, 72 h; for pIC50: Sarcoma, U-2 OS, monolayer, 72 hours treatment, average of three replications
Description: as §1, §2, §3, §4, §5, §6, §7

A549 = assay: Monolayer cell culture IC50 (CellTiter-Glo viability), A549; assay type: cell-based; conditions: Homo sapiens, Lung, 72 hours treatment, average of three replications
Description: as §1, §2, §3, §4, §5, §6, §7

PANC-1 = assay: Monolayer cell culture IC50 (CellTiter-Glo viability), PANC-1; assay type: cell-based; conditions: for IC50: Homo sapiens, PANC-1, 72 h; for pIC50: Pancreatic, PANC-1, monolayer, 72 hours treatment, average of three replications
Description: as §1, §2, §3, §4, §5, §6, §7

SK-ES-1 = assay: Monolayer cell culture IC50 (CellTiter-Glo viability), SK-ES-1; assay type: cell-based, human; conditions: Sarcoma, SK-ES-1, monolayer, 72 hours treatment, average of three replications
Description: as §1, §2, §3, §4, §5, §6, §7

PC-3 = assay: Monolayer cell culture IC50 (CellTiter-Glo viability), PC-3; assay type: cell-based; conditions: for IC50: Homo sapiens, PC-3, 72 h; for pIC50: Prostate, PC-3, monolayer, 72 hours treatment, average of three replications
Description: as §1, §2, §3, §4, §5, §6, §7

[3] = in vivo; cited from earlier work; remark: listed apart in the source
H460 = assay: Monolayer cell culture IC50 (CellTiter-Glo viability), H460; assay type: cell-based; conditions: Homo sapiens, NCI-H460, Lung, 72 hours treatment, average of three replications
Description: as §1, §2, §3, §4, §5, §6, §7

[4] = read-out: IC50 Test (I) Avg (nM)
[5] = read-out: IC50 Test (II) Avg (nM)
[6] = read-out: IC50 Test (III) Avg (nM)
[7] = Test I, read-out: IC50 Test (I) Avg
[8] = Test II, read-out: IC50 Test (II) Avg
[9] = Test III, read-out: IC50 Test (III) Avg

In the case of `Cc1c2oc3c(C)ccc(C(=O)NC4C(=O)NC(C(C)C)C(=O)N5CCCC5C(=O)N(C)CC(=O)N(C)C(C(C)C)C(=O)OC4C)c3nc-2c(C(=O)NC2C(=O)NC(C(C)C)C(=O)N3CCCC3C(=O)N(C)CC(=O)N(C)C(C(C)C)C(=O)OC2C)c(N)c1=O.NC(CS)C(=O)O` (racemic) [DACT:DL-cysteine], the physical form stability [1] was “shown physical stability”.

In the case of `Cc1c2oc3c(C)ccc(C(=O)N[C@@H]4C(=O)N[C@H](C(C)C)C(=O)N5CCC[C@H]5C(=O)N(C)CC(=O)N(C)[C@@H](C(C)C)C(=O)O[C@@H]4C)c3nc-2c(C(=O)N[C@@H]2C(=O)N[C@H](C(C)C)C(=O)N3CCC[C@H]3C(=O)N(C)CC(=O)N(C)[C@@H](C(C)C)C(=O)O[C@@H]2C)c(N)c1=O` [DACT, reference compound], the irritation to tissues [2] is listed as “extremely irritating to tissues”, the IC50 (SK-Mel-5; [4]) is listed as 0.61 nM and the IC50 (SK-Mel-5; [5]) is listed as 0.5 nM. It also gave an IC50 (SK-Mel-5; [6]) of 2.9 nM, a pIC50 (H1299; [7]) of 8.75 and a pIC50 (H1299; [8]) of 8.94. The pIC50 (H1299; [9]) was 8.89, the IC50 (U-2 OS; [4]) was 5.29 nM and the IC50 (U-2 OS; [5]) was 5.63 nM. It also gave an IC50 (U-2 OS; [6]) of 2.62 nM, a pIC50 (A549; [7]) of 8.79 and a pIC50 (A549; [8]) of 8.73. It also gave a pIC50 (A549; [9]) of 8.79, an IC50 (PANC-1; [4]) of 5.68 nM and an IC50 (PANC-1; [5]) of 4.56 nM. For the same compound, the IC50 (PANC-1; [6]) was 4.74 nM, the pIC50 (SK-ES-1; Homo sapiens, SK-ES1, Test I, read-out: IC50 Test (I) Avg) was 8.99 and the pIC50 (SK-ES-1; Homo sapiens, SK-ES1, Test II, read-out: IC50 Test (II) Avg) was 9.25. The pIC50 (SK-ES-1; Homo sapiens, SK-ES1, Test III, read-out: IC50 Test (III) Avg) was 9.20, the IC50 (PC-3; [4]) was 8.81 nM and the IC50 (PC-3; [5]) was 7 nM. The IC50 (PC-3; [6]) was 7.28 nM, the “absorption from the GI tract” value [3] was “poorly absorbed” and the pIC50 (H460; [7]) was 9.46. For the same compound, the pIC50 (H460; [8]) was 9.46 and the pIC50 (H460; [9]) was 9.46.

For `Cc1c2oc3c(C)ccc(C(=O)NC4C(=O)NC(C(C)C)C(=O)N5CCCC5C(=O)N(C)CC(=O)N(C)C(C(C)C)C(=O)OC4C)c3nc-2c(C(=O)NC2C(=O)NC(C(C)C)C(=O)N3CCCC3C(=O)N(C)CC(=O)N(C)C(C(C)C)C(=O)OC2C)c(N)c1=O.O=C(O)c1ccccc1-c1ccccc1C(=O)O` (centres unmarked) [DACT-diphenic Acid], the physical form stability [1] was “stable”, the pIC50 (SK-Mel-5; [7]) was 9.38 and the pIC50 (SK-Mel-5; [8]) was 9.49. It also gave a pIC50 (SK-Mel-5; [9]) of 8.64, a pIC50 (U-2 OS; [7]) of 8.36 and a pIC50 (U-2 OS; [8]) of 8.37. For the same compound, the pIC50 (U-2 OS; [9]) was 8.57, the pIC50 (PANC-1; [7]) was 8.27 and the pIC50 (PANC-1; [8]) was 8.49. It also gave a pIC50 (PANC-1; [9]) of 8.42, a pIC50 (PC-3; [7]) of 8.20 and a pIC50 (PC-3; [8]) of 8.23. The pIC50 (PC-3; [9]) was 8.18.

For `COC(=O)c1ccc(O)cc1.Cc1c2oc3c(C)ccc(C(=O)NC4C(=O)NC(C(C)C)C(=O)N5CCCC5C(=O)N(C)CC(=O)N(C)C(C(C)C)C(=O)OC4C)c3nc-2c(C(=O)NC2C(=O)NC(C(C)C)C(=O)N3CCCC3C(=O)N(C)CC(=O)N(C)C(C(C)C)C(=O)OC2C)c(N)c1=O` (centres unmarked) [DACT-methylparaben], the physical form stability [1] was “stable”, the pIC50 (SK-Mel-5; [7]) was 9.44 and the pIC50 (SK-Mel-5; [8]) was 9.43. It also gave a pIC50 (SK-Mel-5; [9]) of 8.64, a pIC50 (U-2 OS; [7]) of 8.37 and a pIC50 (U-2 OS; [8]) of 8.36. The pIC50 (U-2 OS; [9]) was 8.64, the pIC50 (PANC-1; [7]) was 8.38 and the pIC50 (PANC-1; [8]) was 8.58. It also gave a pIC50 (PANC-1; [9]) of 8.46, a pIC50 (SK-ES-1; [7]) of 9.15 and a pIC50 (SK-ES-1; [8]) of 9.29. It also gave a pIC50 (SK-ES-1; [9]) of 9.24, a pIC50 (PC-3; [7]) of 8.15 and a pIC50 (PC-3; [8]) of 8.26. The pIC50 (PC-3; [9]) was 8.21.
